The record followed here is US8969350B2, “Pharmaceutical product comprising a p38 kinase inhibitor and a second active ingredient” (Astrazeneca AB, priority 2008, dated 2015).

Data set [1] deals with guinea pig trachea. Nature of the data set: Guinea-pig isolated tracheal ring, Protocol B: shift of methacholine concentration response curve (apparent pA2). To be noted: mean ± s.e. mean, n=4; for pA2 in the presence of Compound A: apparent pA2 vs methacholine in the presence of Compound A (4 nM); for pA2 value: apparent pA2 vs methacholine, compound alone, Schild plot slope of 1 assumed. The procedure:
(§1) Guinea-pigs (300-600 g) were killed by cervical dislocation and the trachea removed. After clearing the adherent connective tissue, the trachea was cut into segments (2-3 cartilage rings in width) and suspended in 10 ml organ baths containing modified Krebs' solution (mM; NaCl, 90; NaHCO3, 45; KCl, 5; MgSO4.7H2O, 0.5; Na2HPO4.2H2O, 1; CaCl2, 2.25; glucose, 10; pH 7.4, gassed with 5% CO2, 95% O2 at 37° C.). The tracheal rings were attached to an isometric force transducer for the measurement of isometric tension. The tissues were washed and a force of 1 g was applied to each tissue.
Protocol A: The rings were pre-contracted with methacholine (1 μM) and a cumulative (0.3 nM-3 μM) isoprenaline concentration effect curve constructed. The rings were washed and either Compound A (4 nM) or vehicle was added. The rings were then contracted with a second concentration of methacholine (1 μM). […] Data were collected using the ADInstruments chart4 software, the maximum tension generated at each concentration of agonist was recorded and the response expressed as percentage relaxation (mean±s.e.mean). The data was fitted to a four parameter logistic and a potency value (pEC50) generated (expressed as mean±s.e.mean). Protocol B: A cumulative concentration effect curve to methacholine (3 nM-30 μM) was constructed and then the tissue was washed. […] A second extended cumulative concentration response curve to methacholine was constructed (3 nM-1 mM). Data were collected using the ADInstruments chart4 software, the maximum tension generated at each concentration of agonist was recorded and the results were expressed as percentage of the maximum response measured in the first curve.

In data set [2] the test system is guinea pig trachea. Nature of the data set: Guinea-pig isolated tracheal ring, Protocol A: relaxation of methacholine pre-contracted rings. To be noted: mean ± s.e. mean, n=4; for EC50: Cavia porcellus. The procedure: as §1
Protocol A: The rings were pre-contracted with methacholine (1 μM) and a cumulative (0.3 nM-3 μM) isoprenaline concentration effect curve constructed. The rings were washed and either Compound A (4 nM) or vehicle was added. The rings were then contracted with a second concentration of methacholine (1 μM). Once the contraction had reached a plateau cumulative concentration response curves to Compound C (0.1 nM-1 μM), Compound E (1 nM-1 μM) or Compound H (0.1 nM-1 μM) were constructed. Data were collected using the ADInstruments chart4 software, the maximum tension generated at each concentration of agonist was recorded and the response expressed as percentage relaxation (mean±s.e.mean). The data was fitted to a four parameter logistic and a potency value (pEC50) generated (expressed as mean±s.e.mean). Protocol B: A cumulative concentration effect curve to methacholine (3 nM-30 μM) was constructed and then the tissue was washed. […] A second extended cumulative concentration response curve to methacholine was constructed (3 nM-1 mM). Data were collected using the ADInstruments chart4 software, the maximum tension generated at each concentration of agonist was recorded and the results were expressed as percentage of the maximum response measured in the first curve.

Data set [3] is described as follows: Water uptake by gravimetric vapour sorption (GVS). Conditions: between RH of 0%-80%, as measured by GVS. The format is physicochemical. On the procedure:
GVS profiles were measured using a Dynamic Vapour Sorption DVS-1 instrument. The solid sample ca. 1-5 mg was placed into a glass vessel and the weight of the sample was recorded during a dual cycle step method (40 to 90 to 0 to 90 to 0% relative humidity (RH), in steps of 10% RH).

In data set [4] the test system is LPS stimulated TNFα production from human PBMC. As to the kind of experiment: Inhibition of LPS-induced TNFα production in human peripheral blood mononuclear cells (FLISA). The format is cell-based. To be noted: Compound A alone, n=17, read-out: pIC50 for inhibition of LPS-induced TNFα production from human PBMC (converted).
Procedure: After the pre-incubation period, the cells were then incubated with LPS (1 μg/mL) for 4 hr at 37° C. to induce TNFα production. The total assay volume was 200 μL. At the end of the incubation period, 25 μL of the culture supernatant was analysed to quantify the TNFα released using a Flourescence-linked immunosorbance assay (FLISA). Fluorescence levels were read on an FMAT plate reader. Inhibition curves were fitted using a 4-parameter logistic equation in a non-linear curve fitting routine and activity was expressed as pIC50.
Setting [5] is: compound alone (vehicle), relaxation of rings contracted with methacholine 1 μM, read-out: pEC50 value (converted).

Counter-ions that a name gives are not always drawn. Like-named read-outs stand apart in the source and are kept apart here.

With `O=C(C[N+]12CCC(CC1)[C@@H](OC(=O)C1(c3ccccc3)CCCCCC1)C2)Nc1ccccn1` [Compound K, ((R)-3-(1-phenyl-cycloheptanecarbonyloxy)-1-(pyridin-2-ylcarbamoylmethyl)-1-azonia-bicyclo[2.2.2]octane bromide], in the data set with guinea pig trachea [1], the “pA2 in the presence of Compound A” value was 9.9±0.15 and the pA2 value is on record as 9.9±0.10.

For the compound `O=C(CCNCCc1cccc(F)c1)N(CCNCCc1ccc(O)c2[nH]c(=O)sc12)C1CCCCC1` [Compound H, N-Cyclohexyl-N^3-[2-(3-fluorophenyl)ethyl]-N-(2-{[2-(4-hydroxy-2-oxo-2,3-dihydro-1,3-benzothiazol-7-yl)ethyl]amino}ethyl)-β-alaninamide di-D-mandelate], the EC50 in the data set on guinea pig trachea [2] (setting [5]) is 0.631 nM. In the data set with guinea pig trachea [2] (in the presence of Compound A (4 nM), rings contracted with methacholine 1 μM), the “pEC50 in the presence of Compound A” value is on record as 9.2±0.10.

Turning to `CCc1cc2c(cc1CC)CC(NC[C@H](O)c1ccc(O)c3[nH]c(=O)ccc13)C2` [Compound E, 5-[(1R)-2-[(5,6-diethylindan-2-yl)amino]-1-hydroxy-ethyl]-8-hydroxy-1H-quinolin-2-one maleate, reference compound], the EC50 in the data set on guinea pig trachea [2] (setting [5]) was 15.8 nM; in the data set with guinea pig trachea [2] (in the presence of Compound A (4 nM), rings contracted with methacholine 1 μM, read-out: pEC50 in the presence of Compound A (converted)), 20 nM.

For `CNCCOc1ccccc1C1(Nc2nccn(-c3cc(C(=O)NC4CC4)cc(F)c3C)c2=O)CC1` [preparation 1 crystalline form A, N-Cyclopropyl-3-fluoro-4-methyl-5-[3-[[1-[2-[2-(methylamino)ethoxy]phenyl]cyclopropyl]amino]-2-oxo-1(2H)-pyrazinyl]-benzamide Crystalline Form A], the water uptake in data set [3] stood at 0.4%.

On to `C[N+]1(C)[C@@H]2C[C@@H](OC(=O)C(O)(c3cccs3)c3cccs3)C[C@H]1[C@@H]1O[C@@H]12` [Compound M, (1R,2R,4S,5S,7S)-7-{[hydroxy(dithiophen-2-yl)acetyl]oxy}-9,9-dimethy-3-oxa-9-azoniatricyclo[3.3.1.0~2,4~]nonane bromide, reference compound], for which the “pA2 in the presence of Compound A” value with guinea pig trachea [1] was 12.0±0.08.

Take `O=C(O[C@H]1C[N+]2(CCCOc3ccccc3)CCC1CC2)C(O)(c1cccs1)c1cccs1` [Compound D, [(3R)-1-(3-phenoxypropyl)quinuclidin-1-ium-3-yl]2-hydroxy-2,2-bis(2-thienyl)acetate bromide, reference compound]: in the data set with guinea pig trachea [1], the “pA2 in the presence of Compound A” value stood at 10.5±0.07 and the pA2 value was found to be 10.7±0.09.

On to `CCN(CC)CCN(CCNCCc1ccc(O)c2[nH]c(=O)sc12)C(=O)CCOCCc1cccc2ccccc12` [Compound C, N-[2-(diethylamino)ethyl]-N-(2-{[2-(4-hydroxy-2-oxo-2,3-dihydro-1,3-benzothiazol-7-yl)ethyl]amino}ethyl)-3-[2-(1-naphthyl)ethoxy]propanamide dihydrobromide], for which the EC50 with guinea pig trachea [2] (setting [5]) is 10 nM. The pEC50 value in the data set on guinea pig trachea [2] (compound alone (vehicle), relaxation of rings contracted with methacholine 1 μM, dihydrobromide) is on record as 8.0 ± 0.05.

Consider `C[C@@](C(=O)O[C@H]1C[N+]2(CCc3ccc(F)cc3)CCC1CC2)(c1ccccc1)N1CCCCC1` [Compound J, (R)-1-[2-(4-fluoro-phenyl)-ethyl]-3-((S)-2-phenyl-2-piperidin-1-yl-propionyloxy)-1-azonia-bicyclo[2.2.2]octane 4-methylbenzenesulfonate], for which, in the data set with guinea pig trachea [1] (4-methylbenzenesulfonate), the “pA2 in the presence of Compound A” value came to 10.1±0.10 and the pA2 value was found to be 9.9±0.12.

Turning to `CNCCOc1ccccc1C1(Nc2nccn(-c3cc(C(=O)NC4CC4)cc(F)c3C)c2=O)CC1` [Compound A, N-cyclopropyl-3-fluoro-4-methyl-5-[3-[[1-[2-[2-(methylamino)ethoxy]phenyl]cyclopropyl]amino]-2-oxo-pyrazin-1-yl]benzamide], the IC50 in data set [4] was 7.94 nM.
